Measurements: patent US8124778B2, “Tricyclic inhibitors of fatty acid amide hydrolase” (The Scripps Research Institute, priority 2007, dated 2012)

Molecular target: T1, purified recombinant rat FAAH (Rattus norvegicus, UniProt P97612)
T1 construct: The truncated rat FAAH (rFAAH) was expressed in E. coli and purified as described; made in house; host or cells: E. coli
T1 sequence (P97612 30-579 limits assumed): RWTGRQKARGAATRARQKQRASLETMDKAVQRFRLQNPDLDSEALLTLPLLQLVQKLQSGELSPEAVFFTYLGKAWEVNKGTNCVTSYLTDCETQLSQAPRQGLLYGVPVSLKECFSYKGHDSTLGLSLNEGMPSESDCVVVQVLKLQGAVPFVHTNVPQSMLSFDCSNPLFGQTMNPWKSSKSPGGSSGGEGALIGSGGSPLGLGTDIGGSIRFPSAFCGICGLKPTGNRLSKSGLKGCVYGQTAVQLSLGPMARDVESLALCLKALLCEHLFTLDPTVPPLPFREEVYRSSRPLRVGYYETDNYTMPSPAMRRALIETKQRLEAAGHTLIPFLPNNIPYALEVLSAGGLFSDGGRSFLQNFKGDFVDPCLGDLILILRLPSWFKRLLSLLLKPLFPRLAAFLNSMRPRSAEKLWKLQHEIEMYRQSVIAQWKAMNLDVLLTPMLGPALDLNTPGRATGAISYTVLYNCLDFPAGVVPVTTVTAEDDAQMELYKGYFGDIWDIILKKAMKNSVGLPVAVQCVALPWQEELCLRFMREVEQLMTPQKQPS
Test: FAAH inhibition enzyme assay (14C-oleamide hydrolysis, Dixon plot)
Format: biochemical
Settings: rat FAAH
Method: Enzyme assays were performed at 20-23° C. with purified recombinant rat FAAH expressed in E. coli (Patricelli, M. P.; Lashuel, H. A.; et al. Biochemistry 1998, 37, 15177-15187) (unless indicated otherwise) or with solubilized COS-7 membrane extracts from cells transiently transfected with human FAAH cDNA (Giang, D. K.; Cravatt, B. F. Proc. Natl. Acad. Sci. U.S.A. 1997, 94, 2238-2242) (where specifically indicated) in a buffer of 125 mM Tris/1 mM EDTA/0.2% glycerol/0.02% Triton X-100/0.4 mM Hepes, pH 9.0 buffer (Patricelli, M. P.; Patterson, J. P.; et al. Bioorg. Med. Chem. Lett. 1998, 8, 613-618). The initial rates of hydrolysis (≦10-20% reaction) were monitored using enzyme concentrations at least three times below the measured Ki by following the breakdown of ^14C-oleamide and Ki's (standard deviations are provided in Supporting Information tables) were established as described (Dixon plot) (Boger, D. L.; Sato, H.; et al. Proc. Natl. Acad. Sci. U.S.A. 2000, 97, 5044-5049). Lineweaver-Burk analysis previously established reversible, competitive inhibition (Boger, D. L.; Miyauchi, H.; et al. J. Med. Chem. 2005, 48, 1849-1856).
FAAH Inhibition. ^14C-labeled oleamide was prepared from ^14C-labeled oleic acid as described (Cravatt, B. F.; et al. Science 1995, 268, 1506-1509). The truncated rat FAAH (rFAAH) was expressed in E. coli and purified as described (Patricelli, M. P.; Lashuel, H. A.; et al. Biochemistry 1998, 37, 15177-15187). The purified recombinant rFAAH was used in the inhibition assays unless otherwise indicated. The full-length human FAAH (hFAAH) was expressed in COS-7 cells as described (Giang, D. K.; Cravatt, B. F. Proc. Natl. Acad. Sci. U.S.A. 1997, 94, 2238-2242), and the lysate of hFAAH-transfected COS-7 cells was used in the inhibition assays where explicitly indicated.
The inhibition assays were performed as described (Cravatt, B. F.; et al. Science 1995, 268, 1506-1509). In brief, the enzyme reaction was initiated by mixing 1 nM of rFAAH (800, 500, or 200 pM rFAAH for inhibitors with Ki≦1-2 nM) with 10 μM of ^14C-labeled oleamide in 500 μL of reaction buffer (125 mM TrisCl, 1 mM EDTA, 0.2% glycerol, 0.02% Triton X-100, 0.4 mM Hepes, pH 9.0) at room temperature in the presence of three different concentrations of inhibitor. The enzyme reaction was terminated by transferring 20 μL of the reaction mixture to 500 μL of 0.1 N HCl at three different time points. The ^14C-labeled oleamide (substrate) and oleic acid (product) were extracted with EtOAc and analyzed by TLC as detailed (Cravatt, B. F.; et al. Science 1995, 268, 1506-1509). The Ki of the inhibitor was calculated using a Dixon plot as described (standard deviations are provided in the Supporting Information tables) (Boger, D. L.; Sato, H.; et al. Proc. Natl. Acad. Sci. U.S.A. 2000, 97, 5044-5049). Lineweaver-Burk analysis was performed as described confirming competitive, reversible inhibition (Boger, D. L.; Miyauchi, H.; et al. J. Med. Chem. 2005, 48, 1849-1856).

**Q.** For O=C(CCCCCCc1cccs1)c1ncc(-c2ccccn2)o1 [5a, 1-Oxo-1-[5-(2-pyridyl)oxazol-2-yl]-7-(2-thienyl)heptane], which “FAAH inhibitory potency (in words)” value is on record?
**A.** effective inhibitors

**Q.** Which “FAAH inhibitory potency (in words)” value does the source give for O=C(CCCCCCc1ccsc1)c1ncc(-c2ccccn2)o1 [5b, 1-Oxo-1-[5-(2-pyridyl)oxazol-2-yl]-7-(3-thienyl)heptane] here?
**A.** effective inhibitors

**Q.** For O=C(CCCCCCc1cccc2ccccc12)c1ncc(-c2ccccn2)o1 [5c, 1-Oxo-1-[5-(2-pyridyl)oxazol-2-yl]-7-(1-naphthyl)heptane], which “FAAH inhibitory potency (in words)” value is on record?
**A.** effective inhibitors

**Q.** Which “FAAH inhibitory potency (in words)” value does the source give for O=C(CCCCCCc1ccc2ccccc2c1)c1ncc(-c2ccccn2)o1 [5d, 1-Oxo-1-[5-(2-pyridyl)oxazol-2-yl]-7-(2-naphthyl)heptane] here?
**A.** effective inhibitors

**Q.** For CS(=O)(=O)c1cccc(CCCCCCC(=O)c2ncc(-c3ccccn3)o2)c1 [5ll, 1-Oxo-1-[5-(2-pyridyl)oxazol-2-yl]-7-(3-(methylsulfonyl)phenyl)heptane], which “FAAH inhibitory potency (in words)” value is on record?
**A.** significant potency

**Q.** For CCCCCCc1ccc(CCCCCCC(=O)c2ncc(-c3ccccn3)o2)cc1 [5nn, 1-Oxo-1-[5-(2-pyridyl)oxazol-2-yl]-7-(4-hexylphenyl)heptane], which “FAAH inhibitory potency (in words)” value is on record?
**A.** significant potency

**Q.** With CCCCCCc1cccc(CCCCCCC(=O)c2ncc(-c3ccccn3)o2)c1 [5oo, 1-Oxo-1-[5-(2-pyridyl)oxazol-2-yl]-7-(3-hexylphenyl)heptane] as the molecule, how does the “FAAH inhibitory potency (in words)” value read?
**A.** less effective

**Q.** With O=C(CSCCCCc1ccccc1)c1ncc(-c2ccccn2)o1 [12b, 2-(4-Phenylbutylthio)-1-(5-(pyridin-2-yl)oxazol-2-yl)ethanone] as the molecule, how does the “FAAH inhibitory potency (in words)” value read?
**A.** significant potency

**Q.** With O=C(CS(=O)(=O)CCCCc1ccccc1)c1ncc(-c2ccccn2)o1 [12d, 2-(4-Phenylbutylsulfonyl)-1-(5-(pyridin-2-yl)oxazol-2-yl)ethanone] as the molecule, how does the “FAAH inhibitory potency (in words)” value read?
**A.** significant loss in potency

**Q.** Which “FAAH inhibitory potency (in words)” value does the source give for O=C(CCCCSCc1ccccc1)c1ncc(-c2ccccn2)o1 [12k, 5-(Benzylthio)-1-(5-(pyridin-2-yl)oxazol-2-yl)pentan-1-one] here?
**A.** significant potency

**Q.** Which “FAAH inhibitory potency (in words)” value does the source give for O=C(CCCCCSc1ccccc1)c1ncc(-c2ccccn2)o1 [12p, 6-(Phenylthio)-1-(5-(pyridin-2-yl)oxazol-2-yl)hexan-1-one] here?
**A.** significant potency

**Q.** Which “FAAH inhibitory potency (in words)” value does the source give for O=C(CCC(=O)c1ncc(-c2ccccn2)o1)NCCc1ccccc1 [13a, 4-Oxo-N-phenethyl-4-(5-(pyridin-2-yl)oxazol-2-yl)butanamide] here?
**A.** lower ability to inhibit FAAH

**Q.** For O=C(CCC(O)CCCc1ccccc1)c1ncc(-c2ccccn2)o1 (stereo not drawn) [13f, 4-Hydroxy-7-phenyl-1-(5-(pyridin-2-yl)oxazol-2-yl)heptan-1-one], which “FAAH inhibitory potency (in words)” value is on record?
**A.** lower potency

**Q.** With O=C(c1ncc(-c2ccccn2)o1)C1CC1 [14d, Cyclopropyl(5-(pyridin-2-yl)oxazol-2-yl)methanone] as the molecule, how does the “FAAH inhibitory potency (in words)” value read?
**A.** loss of activity

**Q.** With O=C(c1ncc(-c2ccccn2)o1)C1CCCC1 [14e, Cyclopentyl(5-(pyridin-2-yl)oxazol-2-yl)methanone] as the molecule, how does the “FAAH inhibitory potency (in words)” value read?
**A.** loss of activity

**Q.** With O=C(CCl)c1ncc(-c2ccccn2)o1 [14f, 2-Chloro-1-(5-(pyridin-2-yl)oxazol-2-yl)ethanone] as the molecule, how does the “FAAH inhibitory potency (in words)” value read?
**A.** submicromolar inhibitor of FAAH

**Q.** Which “FAAH inhibitory potency (in words)” value does the source give for O=C(CCCCc1ccccc1)CC(=O)c1ncc(-c2ccccn2)o1 [14g, 7-Phenyl-1-(5-(pyridin-2-yl)oxazol-2-yl)heptane-1,3-dione] here?
**A.** significant loss of inhibitory potency

**Q.** For OC(CCCCc1ccccc1)CC(O)c1ncc(-c2ccccn2)o1 (stereo not drawn) [14h, 7-Phenyl-1-(5-(pyridin-2-yl)oxazol-2-yl)heptane-1,3-diol], which “FAAH inhibitory potency (in words)” value is on record?
**A.** substantial loss in inhibitory potency

**Q.** Which “FAAH inhibitory potency (in words)” value does the source give for CN(CCCCc1ccccc1)CC(O)c1ncc(-c2ccccn2)o1 (stereo not drawn) [14i, 2-(Methyl(4-phenylbutyl)amino)-1-(5-(pyridin-2-yl)oxazol-2-yl)ethanol] here?
**A.** substantial loss in inhibitory potency

Same assay, conditions: rat FAAH, o- and p-methylsulfone vs 5ll

**Q.** For CS(=O)(=O)c1ccccc1CCCCCCC(=O)c1ncc(-c2ccccn2)o1 [5kk, 1-Oxo-1-[5-(2-pyridyl)oxazol-2-yl]-7-(2-(methylsulfonyl)phenyl)heptane], which “fold less effective than m-methylsulfone 5ll” value is on record?
**A.** approximately 10 fold

**Q.** With CS(=O)(=O)c1ccc(CCCCCCC(=O)c2ncc(-c3ccccn3)o2)cc1 [5mm, 1-Oxo-1-[5-(2-pyridyl)oxazol-2-yl]-7-(4-(methylsulfonyl)phenyl)heptane] as the molecule, how does the “fold less effective than m-methylsulfone 5ll” value read?
**A.** approximately 10 fold

Same assay, conditions: recombinant rat FAAH, 14C-oleamide, pH 9.0, 20-23 °C

**Q.** For O=C(CCCCCCc1cccc2ccccc12)c1ncc(-c2ccccn2)o1 [5c, 1-Oxo-1-[5-(2-pyridyl)oxazol-2-yl]-7-(1-naphthyl)heptane], which Ki is on record?
**A.** 2.6 nM

**Q.** Which Ki does the source give for O=C(CCCCCCc1cccc(Cl)c1)c1ncc(-c2ccccn2)o1 [5hh, 1-Oxo-1-[5-(2-pyridyl)oxazol-2-yl]-7-(3-chlorophenyl)heptane] here?
**A.** 0.9 nM

**Q.** For O=C(CCCCCSc1ccccc1)c1ncc(-c2ccccn2)o1 [12p, 6-(Phenylthio)-1-(5-(pyridin-2-yl)oxazol-2-yl)hexan-1-one], which Ki is on record?
**A.** 3 nM

**Q.** Which Ki does the source give for O=C(c1ncc(-c2ccccn2)o1)C(O)CCCCCc1ccccc1 (stereo not drawn) [13d, 2-Hydroxy-7-phenyl-1-(5-(pyridin-2-yl)oxazol-2-yl)heptan-1-one] here?
**A.** 8 nM

System: not given
Test: not given
Settings: not given

**Q.** Which melting point does the source give for O=C(CCCCC#Cc1cccc(Cl)c1)c1ncc(-c2ccccn2)o1 [4hh, 1-Oxo-1-[5-(2-pyridyl)oxazol-2-yl]-7-(3-chlorophenyl)hept-6-yne] here?
**A.** 50 to 51 °C

**Q.** Which melting point does the source give for O=C(CCCCCCc1cccc(Cl)c1)c1ncc(-c2ccccn2)o1 [5hh, 1-Oxo-1-[5-(2-pyridyl)oxazol-2-yl]-7-(3-chlorophenyl)heptane] here?
**A.** 91 to 92 °C
